# Data: patent US10442835B2, “Water-soluble rapamycin derivatives” (Zhejiang Hisun Pharmaceutical Co., Ltd., priority 2016, dated 2019)
# Several values for one entry are separate records, joined by “and”; a condition that tells them apart may be missing. Identical values can stand only once.
# Columns and labels:
# [1] = test system: human liver cancer cell HepG2; test: In vitro activity assay, growth of HepG2 (thymidine incorporation); assay type: cell-based; conditions: 48 h
# Text: (§1) The anti-tumor activity and toxicity of the compounds according to the present invention can be assayed through standard operational procedures of pharmacological experiment. The experiments carried out herein can test the inhibitory effect of the compounds according to the present invention on the growth of human liver cancer cell HepG2, lung cancer cell NCI460, prostate cancer cell DU145, prostate cancer cell PC3, and human breast cancer cell MDA-MB-435. The operational procedure used is briefly described below by taking the inhibitory activity assay against human liver cancer cell HepG2 as an example.
# Human liver cancer cell HepG2 grew in the follow medium:
# Preparation of the growth medium: BRL minimum essential medium with Earle Salts (500 mL), with the addition of the following agents:
# (§2) The operational procedure for the assay is as follows:
# (§3) 1. Cells after being trypsinized were inoculated in 96-well plates at a concentration of 10^4 cells/well, and allowed to grow in a medium with a final volume of 200 μL. The 96-well plates after inoculation are allowed to stand for 24 hours at 37° C., in order to allow the cells to adhere to the surface of the wells.
# (§4) 2. The medium was removed by carefully pipetting without disturbing the cell monolayer. 200 μL Fresh medium was added into each well. It is arranged to make it possible to collect samples from enough wells to run the experiments in triplicate.
# (§5) 3. The compounds to be tested according to the present invention were dissolved into 10 μL phosphate buffered solution (PBS) and incubated for 48 h at 37° C.
# (§6) 4. In the last 6 h of incubation, cells in each well of the 96-well plates were labeled by 1 microcurie T thymidine (New England Nuclear thymidine), by adding 10 μL PBS containing 1 microcurie T thymidine (which was added into the PBS on the day of collecting the samples for test). The 96-well plates were then returned to the incubator and incubated for the last 6 h.
# (§7) 5. Without disturbing the cell monolayer, the radioactive medium was removed by pipetting. Then 50 μL of BRL 10×trypsin was added to each well, followed by incubation at 37° C. for 10 minutes or until the cell monolayer was detached from the bottom (or the wall) of each well. Samples were collected on glass-fiber diskettes using a Skatron 96-well cell harvester. Cells depositing on the glass-fiber diskettes were counted in a Wallac Betaplate counter.
# lung cancer cell NCI460 = test: In vitro activity assay, growth of NCI460; assay type: cell-based; conditions: NCI-460, 48 h
# Text: as §1, §2, §3, §4, §5, §6, §7
# [2] = test system: prostate cancer cell DU145; test: In vitro activity assay, growth of DU145; assay type: cell-based; conditions: Homo sapiens; DU-145; 48 h
# Text: as §1, §2, §3, §4, §5, §6, §7
# prostate cancer cell PC3 = test: In vitro activity assay, growth of PC3; assay type: cell-based; conditions: 48 h
# Text: as §1, §2, §3, §4, §5, §6, §7
# [3] = test system: human breast cancer cell MDA-MB-435; test: In vitro activity assay, growth of MDA-MB-435; assay type: cell-based; conditions: 48 h
# Text: as §1, §2, §3, §4, §5, §6, §7
# [4] = test system: human lung cancer cell NCI-H460; test: In vivo inhibitory activity against NCI-H460 tumor in nude mice; conditions: everolimus 5 mg/kg, compound I-1 6.8 mg/kg, qw 4×
# DU145 = test: In vivo tumor inhibitory efficacy against DU145 tumor in nude mice, intragastrical vs injection; conditions: for Mean Volume of Tumor: 3×/w, 4 w; for tumor inhibitory effect compared with intragastrical everolimus 5 mg/kg: compound I-1 tail vein injection, end of the test
# Procedure: (§8) DU145 (the 3rd generation) tumors in the rapid proliferation stage inoculated in the axilla of nude mice were cut into tumor lumps with a size of 1 mm*1 mm*1 mm and then were inoculated subcutaneously to the right limb of nude mice using a trocar under a sterile condition. When the tumors grow to 150-200 mm^3, the mice were randomly divided into three groups and then administrated with the compounds for 4 weeks. The major diameter (a) and the minor diameter (b) of the tumors were measured 2 or 3 times a week. The tumor volume (TV) was calculated with the following equation: TV=½×a×b^2. Tumors were stripped and weighted at Day 28 and the tumor inhibition rate was calculated using the following equation: (tumor weight of control−tumor weight of experimental group)/tumor weight of control×100%.
# (§9) The nude mice were divided into 3 groups with 4 mice per group when the tumors averagely grew to about 185-200 mm^3, depending on the growth regularity of the tumor and the dosage regimen.
# [5] = test system: human renal cell carcinoma OS-RC-2; test: In vivo inhibitory activity against human renal cell carcinoma OS-RC-2 in nude mice; conditions: for Tumor Weight ± SD: end of experiment
# Procedure: The tumor inhibition rate was calculated.
# [6] = Body weight of DU145 tumor nude mice; conditions: 3×/w, 4 w;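 further: dosing started once xenografts reached 150-200 mm^3, with mice randomized into three groups, loss of body weight served as an indirect sign of drug toxicity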
# Procedure: as §8, §9
# G1: positive drug group: Everolimus (5 mg/kg, qw, 4 w, 3×/w); administration route: intragastrical administration;
# [7] = Day 0, G2 compound I-1 3.4 mg/kg tail vein injection
# [8] = Day 0, G3 compound I-1 1.7 mg/kg tail vein injection
# [9] = Day 3, G2 compound I-1 3.4 mg/kg tail vein injection
# [10] = Day 3, G3 compound I-1 1.7 mg/kg tail vein injection
# [11] = Day 7, G2 compound I-1 3.4 mg/kg tail vein injection
# [12] = Day 7, G3 compound I-1 1.7 mg/kg tail vein injection
# [13] = Day 10, G2 compound I-1 3.4 mg/kg tail vein injection
# [14] = G4 compound I-1 8.12 mg/kg ig 3×/qw
# [15] = G5 compound I-1 2.0 mg/kg iv 3×/qw
# [16] = G6 compound I-1 8.12 mg/kg iv 3×/qw
# [17] = G7 compound I-1 32.7 mg/kg iv 1×/qw
smiles,measurement,setting,value
CO[C@H]1C[C@@H]2CC[C@@H](C)[C@@](O)(O2)C(=O)C(=O)N2CCCC[C@H]2C(=O)OC([C@H](C)C[C@@H]2CC[C@@H](OCCOC(=O)CSC[C@H](NC(=O)CC[C@H](N)C(=O)O)C(=O)NCC(=O)O)[C@H](OC)C2)CC(=O)[C@H](C)/C=C(\C)[C@@H](O)[C@@H](OC)C(=O)[C@H](C)C[C@@H](C)\C=C/C=C/C=C/1C (stereo partly shown) [Compound I-1],IC50,[1],11.127 ± 0.005 µM
same,IC50,lung cancer cell NCI460,27.204 ± 0.007 µM
same,IC50,[2],56.215 ± 0.003 µM
same,IC50,prostate cancer cell PC3,25.978 ± 0.008 µM
same,IC50,[3],55.345 ± 0.005 µM
same,Mean Volume of Tumor,[4]; Day 0,195.1545 mm^3
same,Mean Volume of Tumor,[4]; Day 3,232.4297 mm^3
same,Mean Volume of Tumor,[4]; Day 7,273.2138 mm^3
same,Mean Volume of Tumor,[4]; Day 10,360.0897 mm^3
same,Mean Volume of Tumor,[4]; Day 14,506.8288 mm^3
same,Mean Volume of Tumor,[4]; Day 17,612.8810 mm^3
same,Mean Volume of Tumor,[4]; Day 21,934.2806 mm^3
same,Mean Volume of Tumor,[4]; Day 24,1089.1761 mm^3
same,Tumor Inhibition Rate,"[4]; Day 28, by tumor weight",68% and 68.29%
same,Mean Volume of Tumor,[4]; Day 28,1354.8457 mm^3
same,Tumor Weight ± SD,[4]; Day 28,0.8463 ± 0.1582 g
same,Mean Volume of Tumor,DU145; [7],189.84 mm^3
same,Mean Volume of Tumor,DU145; [8],187.29 mm^3
same,Mean Volume of Tumor,DU145; [9],203.79 mm^3
same,Mean Volume of Tumor,DU145; [10],235.34 mm^3
same,Mean Volume of Tumor,DU145; [11],223.91 mm^3
same,Mean Volume of Tumor,DU145; [12],250.90 mm^3
same,Mean Volume of Tumor,DU145; [13],245.45 mm^3
same,Mean Volume of Tumor,"DU145; Day 10, G3 compound I-1 1.7 mg/kg tail vein injection",269.25 mm^3
same,Mean Volume of Tumor,"DU145; Day 14, G2 compound I-1 3.4 mg/kg tail vein injection",255.59 mm^3
same,Mean Volume of Tumor,"DU145; Day 14, G3 compound I-1 1.7 mg/kg tail vein injection",281.22 mm^3
same,Mean Volume of Tumor,"DU145; Day 17, G2 compound I-1 3.4 mg/kg tail vein injection",261.55 mm^3
same,Mean Volume of Tumor,"DU145; Day 17, G3 compound I-1 1.7 mg/kg tail vein injection",280.18 mm^3
same,Mean Volume of Tumor,"DU145; Day 21, G2 compound I-1 3.4 mg/kg tail vein injection",257.96 mm^3
same,Mean Volume of Tumor,"DU145; Day 21, G3 compound I-1 1.7 mg/kg tail vein injection",300.52 mm^3
same,Mean Volume of Tumor,"DU145; Day 24, G2 compound I-1 3.4 mg/kg tail vein injection",241.11 mm^3
same,Mean Volume of Tumor,"DU145; Day 24, G3 compound I-1 1.7 mg/kg tail vein injection",288.39 mm^3
same,Mean Volume of Tumor,"DU145; Day 28, G2 compound I-1 3.4 mg/kg tail vein injection",267.54 mm^3
same,Mean Volume of Tumor,"DU145; Day 28, G3 compound I-1 1.7 mg/kg tail vein injection",323.75 mm^3
same,tumor inhibitory effect compared with intragastrical everolimus 5 mg/kg,DU145; dosage equivalent to a quarter of that of everolimus (1.7 mg/kg),substantially the same tumor inhibitory effect as that of intragastrical administration of everolimus
same,tumor inhibitory effect compared with intragastrical everolimus 5 mg/kg,DU145; dosage equivalent to half of that of everolimus (3.4 mg/kg),significantly superior to that of intragastric administration of everolimus
same,Tumor Inhibition Rate,[5]; [14],55.6%
same,Tumor Inhibition Rate,[5]; [15],57.1%
same,Tumor Inhibition Rate,[5]; [16],59.9%
same,Tumor Inhibition Rate,[5]; [17],60.6%
same,tumor inhibitory effect (FIG. 7),"[5]; compound I-1 injection, 2.0 mg/Kg 3 times a week or 32.7 mg/Kg once a week",a good tumor inhibitory effect
same,Tumor Weight ± SD,[5]; [14],0.3002 ± 0.1108 g
same,Tumor Weight ± SD,[5]; [15],0.2905 ± 0.0936 g
same,Tumor Weight ± SD,[5]; [16],0.2710 ± 0.1695 g
same,Tumor Weight ± SD,[5]; [17],0.2669 ± 0.1023 g
same,"Body Weight, mean value",[6]; [7],25.30 g
same,"Body Weight, mean value",[6]; [8],26.86 g
same,"Body Weight, mean value",[6]; [9],25.92 g
same,Decrease rate (body weight),[6]; [9],−2.45%
same,"Body Weight, mean value",[6]; [10],27.32 g
same,Decrease rate (body weight),[6]; [10],−1.70%
same,Decrease in body weight,"[6]; Day 3 vs Day 0, G2 compound I-1 3.4 mg/kg tail vein injection",-0.62 g
same,Decrease in body weight,"[6]; Day 3 vs Day 0, G3 compound I-1 1.7 mg/kg tail vein injection",-0.46 g
same,"Body Weight, mean value",[6]; [11],26.13 g
same,Decrease rate (body weight),[6]; [11],−3.29%
same,"Body Weight, mean value",[6]; [12],27.17 g
same,Decrease rate (body weight),[6]; [12],−1.16%
same,Decrease in body weight,"[6]; Day 7 vs Day 0, G2 compound I-1 3.4 mg/kg tail vein injection",-0.83 g
same,Decrease in body weight,"[6]; Day 7 vs Day 0, G3 compound I-1 1.7 mg/kg tail vein injection",-0.31 g
same,"Body Weight, mean value",[6]; [13],26.15 g
same,Decrease rate (body weight),[6]; [13],−3.37%
